Data published in ChEMBL document CHEMBL3769359, “Design of Selective PAK1 Inhibitor G-5555: Improving Properties by Employing an Unorthodox Low-pK a Polar Moiety” (ACS Med Chem Lett, 2015).

Key:
[1] = Hepatic clearance in human liver microsomes after 1 hr by LC-MS/MS analysis; assay type: ADME
[2] = Oral bioavailability in CD1 mouse blood at 25 mg/kg after 8 hrs by LC/MS/MS; assay type: ADME, organism-based; conditions: whole blood
[3] = AUC (0 to 8 hrs) in CD1 mouse blood at 25 mg/kg, po after 8 hrs by LC/MS/MS; assay type: ADME, organism-based; set-up: time < 8 hr, dose 25 mg/kg, route oral; conditions: whole blood
[4] = Plasma clearance in cynomolgus monkey; assay type: ADME, organism-based, Macaca fascicularis
[5] = Oral bioavailability in cynomolgus monkey; assay type: ADME, organism-based, Macaca fascicularis; conditions: in vivo
[6] = Clearance in CD1 mouse blood at 2 mg/kg, iv after 8 hrs by LC/MS/MS; assay type: ADME, organism-based; conditions: whole blood
[7] = Half life in CD1 mouse blood at 2 mg/kg, iv after 8 hrs by LC/MS/MS; assay type: ADME, organism-based; conditions: whole blood

CLhep predicted [1] [mL/min/kg] | Structure (SMILES) | other results
9.6 | CCNc1ncc2cc(-c3ccc(-c4cncc(C)n4)cc3Cl)c(=O)n(C[C@H]3OC[C@H](N)CO3)c2n1 | –
11.6 | CNc1ncc2cc(-c3ccc(-c4cccc(C)n4)cc3Cl)c(=O)n(C[C@H]3OC[C@H](N)CO3)c2n1 | bioavailability [2]: 80%; AUC(0-t) at 8 h [3]: 30 µM·h; clearance [4]: 3.4 mL/min/kg; bioavailability [5]: 72%; clearance [6]: 24.2 mL/min/kg; half-life [7]: 53 min
10.7 | CNc1ncc2cc(-c3ccc(-c4cncc(C)n4)cc3Cl)c(=O)n(C[C@H]3CNCCO3)c2n1 | –

More lines, now with the values behind:

Structure (SMILES) | CLhep predicted [1] [mL/min/kg] | other results
CNc1ncc2cc(-c3ccc(-c4cccc(C)n4)cc3Cl)c(=O)n(C[C@H]3OC[C@H](NC)CO3)c2n1 | 13.8 | –
CNc1ncc2cc(-c3ccc(-c4cccc(C)n4)cc3Cl)c(=O)n(C[C@@H]3CCNCC3(F)F)c2n1 | 17.8 | –
CCNc1ncc2cc(-c3ccc(-c4cncc(C)n4)cc3Cl)c(=O)n(CC3CCNC(=O)C3)c2n1 (centres undefined) | 12.5 | –
CNc1ncc2cc(-c3ccc(-c4cccc(C)n4)cc3Cl)c(=O)n(CC3COC4(CNC4)OC3)c2n1 | 11.6 | –
CCNc1ncc2cc(-c3ccc(-c4cncc(C)n4)cc3Cl)c(=O)n(CCCO)c2n1 | 14.7 | –
